Data published in the supplement of paper PMC10307832.

Assays:
Experiment in all cases: relative viability (nuclei count vs DMSO), 5 days (fraction); higher = more cells survive
Vismodegib + Dasatinib = compound: CS(=O)(=O)c1ccc(C(=O)Nc2ccc(Cl)c(-c3ccccn3)c2)c(Cl)c1 [Vismodegib] + Cc1nc(Nc2ncc(C(=O)Nc3c(C)cccc3Cl)s2)cc(N2CCN(CCO)CC2)n1 [Dasatinib] (partner 0.075 µM)
Summary of the method: (§1)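 Lung cancer cell lines in 1536-well plates got either a single drug or a fixed anchor-drug dose together with five library-drug doses (not always all listed) in √10 steps, by pin tool, on the day after seeding. Nuclei were counted after 5 days, and relative viability is the treated-to-vehicle ratio of nuclei counts. Values are medians of duplicate plates.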

Ruxolitinib + Vorinostat = compound: N#CC[C@H](C1CCCC1)n1cc(-c2ncnc3[nH]ccc23)cn1 [Ruxolitinib] + O=C(CCCCCCC(=O)Nc1ccccc1)NO [Vorinostat] (partner 1 µM)
Summary of the method: as §1

Vismodegib + Luminespib = compound: CS(=O)(=O)c1ccc(C(=O)Nc2ccc(Cl)c(-c3ccccn3)c2)c(Cl)c1 [Vismodegib] + CCNC(=O)c1noc(-c2cc(C(C)C)c(O)cc2O)c1-c1ccc(CN2CCOCC2)cc1 [Luminespib] (partner 0.01 µM)
Summary of the method: as §1

Vismodegib + Tozasertib = compound: CS(=O)(=O)c1ccc(C(=O)Nc2ccc(Cl)c(-c3ccccn3)c2)c(Cl)c1 [Vismodegib] + Cc1cc(Nc2cc(N3CCN(C)CC3)nc(Sc3ccc(NC(=O)C4CC4)cc3)n2)n[nH]1 [Tozasertib] (partner 0.1 µM)
Summary of the method: as §1

Q: UMC-11 was tested. Which relative viability (Vismodegib + Dasatinib; first compound 0.08 µM) did it give?
A: Its relative viability is 0.434.

Q: And the relative viability (Vismodegib + Dasatinib; first compound 0.253 µM)?
A: The relative viability was 0.471.

Q: And the relative viability (Vismodegib + Dasatinib; first compound 0.8 µM)?
A: Its relative viability is 0.423.

Q: What about the relative viability (Vismodegib + Dasatinib; first compound 2.53 µM) of the same cell line?
A: Its relative viability is 0.444.

Q: And the relative viability (Vismodegib + Dasatinib; first compound 8 µM)?
A: Its relative viability is 0.418.

Q: What about the relative viability (Ruxolitinib + Vorinostat; first compound 0.08 µM) of the same cell line?
A: The relative viability was 0.362.

Q: And the relative viability (Ruxolitinib + Vorinostat; first compound 0.253 µM)?
A: Its relative viability is 0.384.

Q: And the relative viability (Ruxolitinib + Vorinostat; first compound 0.8 µM)?
A: The relative viability was 0.452.

Q: And the relative viability (Ruxolitinib + Vorinostat; first compound 2.53 µM)?
A: Its relative viability is 0.48.

Q: What about the relative viability (Ruxolitinib + Vorinostat; first compound 8 µM) of the same cell line?
A: The relative viability was 0.386.

Q: What about the relative viability (Vismodegib + Luminespib; first compound 0.08 µM) of the same cell line?
A: Its relative viability is 0.937.

Q: What about the relative viability (Vismodegib + Luminespib; first compound 0.253 µM) of the same cell line?
A: The relative viability was 0.966.

Q: And the relative viability (Vismodegib + Luminespib; first compound 0.8 µM)?
A: Its relative viability is 1.01.

Q: What about the relative viability (Vismodegib + Luminespib; first compound 2.53 µM) of the same cell line?
A: The relative viability was 0.933.

Q: And the relative viability (Vismodegib + Luminespib; first compound 8 µM)?
A: The relative viability was 1.04.

Q: And the relative viability (Vismodegib + Tozasertib; first compound 0.08 µM)?
A: The relative viability was 0.184.

Q: What about the relative viability (Vismodegib + Tozasertib; first compound 0.253 µM) of the same cell line?
A: The relative viability was 0.196.

Q: What about the relative viability (Vismodegib + Tozasertib; first compound 0.8 µM) of the same cell line?
A: The relative viability was 0.168.

Q: What about the relative viability (Vismodegib + Tozasertib; first compound 2.53 µM) of the same cell line?
A: The relative viability was 0.194.

Q: What about the relative viability (Vismodegib + Tozasertib; first compound 8 µM) of the same cell line?
A: The relative viability was 0.225.
